These results are taken from patent US20060078875A1, “Genetic selection of small molecule modulators of protein-protein interactions” (The Penn State Research Foundation, priority 2004, published 2006).

For one assay, the target named is T1, ATIC homodimer (Gallus gallus, UniProt P31335).
T1 construct: expressed in transfected cells; host or cells: E. coli RTHS strain with the ATIC fusion integrated on the chromosome
T1 sequence (P31335 1-593): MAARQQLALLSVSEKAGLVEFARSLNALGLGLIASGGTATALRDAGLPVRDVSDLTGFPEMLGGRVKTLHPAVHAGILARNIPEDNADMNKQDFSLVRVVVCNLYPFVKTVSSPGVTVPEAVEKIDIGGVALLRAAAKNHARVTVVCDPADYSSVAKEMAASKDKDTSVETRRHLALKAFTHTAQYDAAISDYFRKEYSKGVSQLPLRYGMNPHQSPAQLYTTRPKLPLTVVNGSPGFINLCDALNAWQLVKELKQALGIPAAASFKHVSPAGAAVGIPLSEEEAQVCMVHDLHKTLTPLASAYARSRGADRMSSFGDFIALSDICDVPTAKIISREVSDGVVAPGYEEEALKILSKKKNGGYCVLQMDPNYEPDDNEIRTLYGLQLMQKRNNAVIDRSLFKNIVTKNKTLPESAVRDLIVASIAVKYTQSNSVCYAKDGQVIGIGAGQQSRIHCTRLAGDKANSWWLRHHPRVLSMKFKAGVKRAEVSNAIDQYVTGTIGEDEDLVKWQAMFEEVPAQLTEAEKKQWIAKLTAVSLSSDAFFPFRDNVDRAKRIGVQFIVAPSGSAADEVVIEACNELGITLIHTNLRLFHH
Description: ATIC RTHS ranking by spotting serial dilutions on selective media. The assay is classed as cell-based. The note with it: cyclic peptides in order of biological activity (1 = most active). Here is the method: ATIC was cloned as a fusion with the bacteriophage 434 repressor DNA binding domain (into pTHCP16, FIG. 1B) such that expression of the repressor-ATIC fusion placed under control of an isopropyl β-D-thiogalactoside (IPTG) inducible promoter. […] In order to improve selection conditions, a new RTHS strain was constructed by integrating the ATIC fusion onto the chromosome. The level of IPTG giving optimal repression was determined to be 50 μM by β-galactosidase assays.
The first SICLOPPS library transformed into the selection strain encoded a hexapeptide with five random residues and a cysteine nucleophile. Approximately 10^7 transformants were plated onto histidine-free minimal media supplemented with arabinose, (inducer for SICLOPPS) 3-amino-1,2,4-triazole (3-AT, competitive inhibitor of HIS3 product) and kanamycin at a density of 10^6 per plate (100×15 mm). The plates were incubated until colonies were readily visible (approximately one in 10^5). A second library encoding an octapeptide with five random residues and an invariable SGW motif was also tested (not shown). Around 200 colonies were picked and screened for arabinose dependent growth advantage and IPTG dependent inhibition of growth to eliminate false positives. The expected phenotype was further confirmed by isolating and retransforming the selected SICLOPPS plasmids into the selection strain. The 14 remaining cyclic peptides were then ranked for activity by spotting serial dilutions of the corresponding cells onto selective media, allowing the conferred growth advantage to be compared at each dilution level.
SICLOPPS libraries were transformed into E. coli strains containing integrated reporter and repressor constructs. Transformants were washed with minimal media A and plated on minimal media A supplemented with 13 μM L-(+)-arabinose, 2.5 mM 3-amino-1,2,4-triazole, 25 μM kanamycin and 50 μM IPTG. After incubation at 37° C. for 3-4 days, surviving colonies were restreaked onto the same media with and without arabinose. Plasmids from selected strains whose growth depended on the presence of arabinose were retransformed into the original selection strain and checked for phenotype retention. The variable insert regions on SICLOPPS plasmids were PCR-amplified, and their DNA sequence determined.

For assay [1], the target named is T2, avian ATIC (AICAR Tfase) (Gallus gallus, UniProt P31335).
T2 sequence (P31335 1-593): T1 sequence (P31335 1-593)
Kind of assay: AICAR Tfase progress curve analysis (DynaFit). In kind it is biochemical. Details: 6× histidine tag (N); made in house. The note with it: progress curves.
Description: The inhibitors were assayed under two conditions, limiting the amount of each substrate. In one case 168 nM of ATIC, 100 μM of 10-f-THF and 20 μM of AICAR was used (limiting AICAR), and in the second case 168 nM of ATIC, 40 μM of 10-f-THF and 100 μM of AICAR was used (limiting 10-f-THF). The reactions were monitored as outlined above, for 50 minutes. […] The data was fitted to the standard inhibition models (non-competitive, uncompetitive, mixed and competitive) and a model in which the inhibitor binds a monomer of ATIC preventing dimerization.
The progress curves were fitted to a model in which the inhibitor binds a single protomer of ATIC thereby preventing dimerization, as well as the standard inhibition models (non-competitive, uncompetitive, mixed and competitive) using DynaFit [Kuzmic (1996)].

Assay [2] has as its target T2, avian ATIC (AICAR Tfase). Description: AICAR Tfase assay.
Description: All assays were performed using a Varian Cary 100 Spectrometer. All reaction mixtures were 500 μl in volume and carried out in 1 cm pathlength quartz cuvettes at 25° C. The enzyme used in all of the inhibition studies was avian ATIC, fused to a N-terminal 6× histidine tag to facilitate purification. […] The peptides were dissolved in DMSO to a final concentration of 2.5 mM.
84 nM of ATIC, 50 μM of 10-f-THF and various quantities of inhibitor were mixed in the assay buffer (32.5 mM Tris-HCl, 25 mM KCl, pH 7.4). The mixture was incubated at 25° C. for 2 min before initiating the reaction by addition of 20 μM AICAR. The reaction was monitored by measuring the increase in absorbance due to formation of tetrahydrofolate at 298 nm.
The peptides were assumed to be competing with f-10-THF, which binds to ATIC and stabilizes its dimerization.
In assay [3] the target is T3, ribonucleotide reductase large subunit (mR1) (Mus musculus, UniProt P07742).
T3 construct: made in house; host or cells: E. coli BL21(λDE3) Rosetta, pET28a-MR1
T3 sequence (P07742 1-792): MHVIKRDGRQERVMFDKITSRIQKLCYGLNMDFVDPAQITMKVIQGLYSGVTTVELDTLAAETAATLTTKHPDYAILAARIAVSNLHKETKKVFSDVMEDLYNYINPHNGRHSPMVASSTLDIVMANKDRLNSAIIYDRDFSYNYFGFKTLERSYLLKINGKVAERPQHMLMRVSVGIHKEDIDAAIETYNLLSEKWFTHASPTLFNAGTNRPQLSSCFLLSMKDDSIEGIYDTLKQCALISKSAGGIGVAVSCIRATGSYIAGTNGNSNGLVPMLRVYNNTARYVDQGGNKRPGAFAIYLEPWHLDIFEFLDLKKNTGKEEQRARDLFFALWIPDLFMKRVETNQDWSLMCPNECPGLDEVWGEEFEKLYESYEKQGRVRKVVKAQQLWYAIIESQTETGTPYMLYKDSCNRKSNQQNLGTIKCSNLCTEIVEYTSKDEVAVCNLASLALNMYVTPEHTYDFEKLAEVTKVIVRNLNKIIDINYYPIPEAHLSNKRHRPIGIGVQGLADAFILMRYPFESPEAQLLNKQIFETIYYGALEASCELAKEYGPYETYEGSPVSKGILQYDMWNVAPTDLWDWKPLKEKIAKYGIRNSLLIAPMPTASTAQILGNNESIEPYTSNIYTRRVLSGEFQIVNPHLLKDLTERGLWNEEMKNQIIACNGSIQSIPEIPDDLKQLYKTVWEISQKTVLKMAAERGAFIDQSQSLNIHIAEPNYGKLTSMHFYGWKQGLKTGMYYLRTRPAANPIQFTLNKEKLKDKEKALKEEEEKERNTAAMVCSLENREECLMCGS
Kind of assay: Immobilized peptide binding/competition ELISA with mR1. Set-up: species or system murine. The following applies: peptide immobilized via cysteine on maleimide plates; His6-tagged mR1. Here is the method: (§1) FIG. 8B provides the results of an immobilized P8 ELISA.
(§2) Two variations of solid phase binding assays were used for analyzing the binding of peptide inhibitors to ribonucleotide reductase subunits: i) protein competition ELISA where peptides were competing with mR1 for binding to immobilized mR2, ii) binding and competition ELISA with covalently immobilized ligands. In general, the solid phase assays were performed in microtiter plates (MaxiSorp, Nunc) or strip units (Reacti-Bind™ Maleimide Activated Clear Strip Plates, Pierce) involving continuous agitation in Junior Orbit Shaker (Lab-line Instruments) at medium speed during all of the incubation steps. Sample volumes were 100 μL, unless specified otherwise. Following coating, blocking step was conducted by incubating pre-loaded wells with 5% bovine serum albumin in PBS for 1 h at room temperature. Wash procedures between any two successive incubations involved three washes with 200 μL of 0.5% Tween-20 in PBS (PBST), with the second wash involving a 5 min incubation. Detection of His-tagged proteins was performed with Ni·NTA-HRP conjugate (Qiagen) according to the manufacturer instructions.
(§3) Peptides (200 nmol per well) in 10% DMF/50 mM Tris·HCl (pH 7.5) with 1 mM TCEP were reacted for 2 h at room temperature with maleimide-derivatized polystyrene wells. The unreacted sites were blocked by incubating wells with 5 μM cysteine in 50 mM Tris·HCl (pH 7.5) for 30 min. Following washing and blocking steps, the wells were incubated with His-tagged mR1 or mR2 in the presence or absence of inhibitors. The retained protein was detected via Ni·NTA-HRP conjugate.
(§4) To determine the mechanism of action of the four identified sequences an alternative assay format was devised (FIG. 8A), where a peptide with a residual activity in its immobilized form can serve as a specific ligand for receptor capture in both binding and competition ELISA. The success of such an assay relies on both efficient peptide immobilization strategy and sufficient level of affinity, uncompromised by this display strategy. The peptide immobilization becomes feasible through implementation of a cysteine, a nucleophile used in splicing, as a universal chemoselective handle allowing covalent attachment strategy through a suitable electrophile. Chemoselective attachment of such peptides on appropriately derivatized surfaces should both display the small molecules for detection with a suitable protein receptor and allow binding site competition analysis, not unlike in a traditional immunosorbent format.
(In general: An ELISA detects its analyte on a solid surface through an enzyme-linked reagent.)

The target of assay [4] is T4, ribonucleotide reductase small subunit (mR2) (Mus musculus, UniProt P11157).
T4 construct: made in house; host or cells: E. coli BL21(λDE3), pET28a-MR2
T4 sequence (P11157 1-390): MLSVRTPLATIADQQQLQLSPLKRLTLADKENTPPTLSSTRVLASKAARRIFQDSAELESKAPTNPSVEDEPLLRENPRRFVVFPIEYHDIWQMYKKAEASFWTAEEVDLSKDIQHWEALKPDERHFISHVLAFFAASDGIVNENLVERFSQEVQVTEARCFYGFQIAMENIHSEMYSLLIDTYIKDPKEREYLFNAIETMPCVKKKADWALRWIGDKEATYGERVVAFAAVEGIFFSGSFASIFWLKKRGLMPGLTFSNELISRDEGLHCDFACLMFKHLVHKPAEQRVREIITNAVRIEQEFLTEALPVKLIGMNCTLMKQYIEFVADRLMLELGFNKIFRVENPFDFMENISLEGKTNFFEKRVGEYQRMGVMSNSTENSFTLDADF
Description: Immobilized c-RR130 binding/competition ELISA with mR2. The note with it: increasing protein concentrations. Set-up: species or system murine. Here is the method: as §1, §2, §3, §4

In another assay the target is T5, His6-mR2 (Mus musculus, UniProt P11157).
T5 construct: made in house; host or cells: E. coli BL21(λDE3), pET28a-MR2
T5 sequence (P11157 1-390): T4 sequence (P11157 1-390)
Description: Quenching of intrinsic mR2 tryptophan fluorescence. The assay is classed as binding, murine. The note with it: PBS pH 7.0. Here is the method:
The equilibrium dissociation constant, KD, for His-tagged mR2·cRR130 complex was measured by the quenching of intrinsic protein fluorescence as a function of ligand concentration using a Flouromax-2 (SA Instruments) spectrofluorometer. His6-mR2 was added to 1× phosphate buffered saline (PBS) buffer at pH 7.0, and enzyme concentrations were kept below the KD being measured and were typically 1 μM. The small subunit mR2 contains six tryptophan residues whose combined fluorescence was monitored at 350 nm with excitation at 295 nm. Fluorescence data were collected as a function of added cRR130. The data was corrected for ligand background fluorescence and were fit to a hyperbolic equation to generate the KD value.

Another assay has as its target T6, HIV-1 protease (Human immunodeficiency virus type 1 group M subtype B, UniProt P04585, D513N).
T6 construct: HIV-1 protease was PCR amplified from pET-HIV-1; expressed in transfected cells; host or cells: E. coli strain SNS118 (integrated fusion)
Kind of assay: RTHS β-galactosidase assay, HIV-1 protease fusion in strain SNS118. The following applies: peptide co-expressed with HIV-1 protease fusion. In kind it is cell-based. Here is the method: FIG. 4 has two graphs (A and B) of β-galactosidase assays showing the effect of linear peptide inhibitors on the oligomeric state of HIV-1 protease and ribonucleotide reductase.
pHIV5. HIV-1 protease was PCR amplified from pET-HIV-1 [Ido et al. (1991) J. Biol. Chem. 266:24359-24366] and cloned into SalI and BamHI sites of pTHCP16. The catalytic aspartate (D25) was mutated to asparagine using 3-primer PCR [Michael (1994) Biotechniques 16:410-412], and a S(G)4S linker was added at the SalI site.
Overlapping oligonucleotides encoding MTVSYEL (methionine plus hexapaptide control inhibitor) (SEQ ID:17) [Schramm et al. (1996) Antiviral Res. 30:155-170] were cloned into EcoRI and SphI sites on arabinose expression plasmid pBAD18.
Towards this goal, both enzyme complexes were probed with known linear peptidic inhibitors. These peptides are a C-terminal hexapeptide (FIG. 4A, pHIV16) for HIV protease that inhibits the essential β-sheet interactions [Schramm al. (1996) Antiviral Res. 30:155-170], and a heptapeptide for ribonucleotide reductase (pTHCP35, FIG. 4B) that competes with binding between subunits mR1 and mR2 [Yang et al. (1990) FEBS Lett. 272:61-64].

Peptide text beside a SMILES is read from it.

As to `CC(C)[C@@H]1NC(=O)[C@H](CC(N)=O)NC(=O)[C@H](Cc2ccccc2)NC(=O)[C@H](Cc2ccc(O)cc2)NC(=O)[C@H](CCCNC(=N)N)NC(=O)[C@H](CS)NC1=O` [c-1a, R Y F N V C] (cyclo(RYFNVC)), the “Activity Rank” value on ATIC homodimer was determined as 1. Besides, at avian ATIC (AICAR Tfase) [1], the “Best-fitting inhibition model with respect to 10-f-THF” value is “inhibition of enzyme dimerization” and the “Best-fitting inhibition model with respect to AICAR” value is on record as “non-competitive inhibition model”.
Usually Ki stands for a dissociation constant, usually derived from enzyme kinetics or from competition with a known ligand. Low readings indicate tighter binding, high ones weaker binding. Consider `CSCC[C@@H]1NC(=O)[C@H](Cc2c[nH]c3ccccc23)NC(=O)CNC(=O)[C@H](CO)NC(=O)[C@H](C(C)C)NC(=O)[C@H](CC(N)=O)NC(=O)[C@H](CC(C)C)NC(=O)[C@H](Cc2ccccc2)NC1=O` [c-151, M F L N V SGW] (cyclo(WMFLNVSG)), for which the “Activity Rank” value on ATIC homodimer came out at 1. Moreover, the inhibition constant (Ki) at avian ATIC (AICAR Tfase) [2] is 59 ± 6.8 µM.
By Kd is commonly meant the equilibrium constant for the complex coming apart. With `CC(C)[C@@H]1NC(=O)[C@H](CC(N)=O)NC(=O)[C@H](Cc2ccc(O)cc2)NC(=O)[C@H](Cc2ccc(O)cc2)NC(=O)[C@H](CCCNC(=N)N)NC(=O)[C@H](CS)NC1=O` [c-RR130] (cyclo(CRYYNV)), in assay [3], the “Affinity of immobilized peptide toward mR1” value is given as “immune”. Besides, the “Capture of His6-tagged mR2 by immobilized peptide” value in assay [4] is recorded as “selectively captured”. Also, the Kd on His6-mR2 worked out at 53 µM.
With `CC(C)[C@@H]1NC(=O)[C@H](Cc2ccc(O)cc2)NC(=O)[C@H](CCCNC(=N)N)NC(=O)[C@H](Cc2c[nH]cn2)NC(=O)[C@H](CS)NC(=O)[C@H](Cc2ccccc2)NC1=O` [c-RR133] (cyclo(CHRYVF)), the Kd at His6-mR2 was determined as 133 µM.
Consider MTVSYEL [pHIV16], for which the “Repression of the lacZ reporter” value with HIV-1 protease is listed as “relieved repression”.
